The target of the assay is T1, DAPk WT (Homo sapiens, UniProt P53355).
T1 construct: Plasmids encoding N-terminal Flag and hemaglutinin (HA)-tagged human full-length DAPk (Flag-DAPk and HA-DAPk); made in house; host or cells: HEK 293T cells, transient transfection; anti-FLAG M2 immunoprecipitation, elution with FLAG peptide
The experiment in a line: In vitro kinase assay (ELISA, hMLC Ser 19 phosphorylation). The note with it: DAPk WT pre-incubated with GDP versus Gpp(NH)p (non-hydrolysable GTP analog); FIG. 4C. The class given is biochemical. On the procedure:
Maxisorp™ multiwell polystyrene plates (Nunc, Langenselbold, Germany) were incubated at 4° C., overnight, with the indicated amounts of hMLC diluted in PBS. Plates were washed with PBST and blocked with 4% BSA (Sigma, City, State) diluted in PBS. The kinase reactions were then performed on the plate. Briefly, the wells were incubated with kinase buffer (50 mM Hepes, pH 7.5, 20 mM MgCl2, 0.1 mg/mL BSA, 50 mM β-glycerol phosphate, 50 μM ATP) containing 2.5 nM of the indicated enzyme, for 10 min. The reactions were stopped by addition of EDTA to final concentration of 25 mM. Plates were washed again with PBST and then incubated with rabbit anti MLC (Ser19) polyclonal antibody (Cell Signaling, Danvers, Mass.) at a 1:250 dilution in PBS. PBST wash was performed again and the plate incubated with HRP-conjugated goat anti rabbit IgG (Jackson ImmunoResearch, West Grove, Pa.). Detection was done with the HRP substrate ABTS. Where indicated the HRP read outs were plot using the Michaelis-Menten equation and the curves fit by the least squares method.
To determine the significance to DAPk's enzymatic activity of the ROC domain in general and of the GTP-binding in particular, in vitro kinase assays were performed. The assays were based on an ELISA format measuring phosphorylation of the DAPk substrate hMLC at Ser 19, using specific anti-phospho Ser19 antibodies. […]
In general terms: In an ELISA, binding on a coated surface is turned into a signal by an enzyme label.

T1 sequence (P53355 whole entry): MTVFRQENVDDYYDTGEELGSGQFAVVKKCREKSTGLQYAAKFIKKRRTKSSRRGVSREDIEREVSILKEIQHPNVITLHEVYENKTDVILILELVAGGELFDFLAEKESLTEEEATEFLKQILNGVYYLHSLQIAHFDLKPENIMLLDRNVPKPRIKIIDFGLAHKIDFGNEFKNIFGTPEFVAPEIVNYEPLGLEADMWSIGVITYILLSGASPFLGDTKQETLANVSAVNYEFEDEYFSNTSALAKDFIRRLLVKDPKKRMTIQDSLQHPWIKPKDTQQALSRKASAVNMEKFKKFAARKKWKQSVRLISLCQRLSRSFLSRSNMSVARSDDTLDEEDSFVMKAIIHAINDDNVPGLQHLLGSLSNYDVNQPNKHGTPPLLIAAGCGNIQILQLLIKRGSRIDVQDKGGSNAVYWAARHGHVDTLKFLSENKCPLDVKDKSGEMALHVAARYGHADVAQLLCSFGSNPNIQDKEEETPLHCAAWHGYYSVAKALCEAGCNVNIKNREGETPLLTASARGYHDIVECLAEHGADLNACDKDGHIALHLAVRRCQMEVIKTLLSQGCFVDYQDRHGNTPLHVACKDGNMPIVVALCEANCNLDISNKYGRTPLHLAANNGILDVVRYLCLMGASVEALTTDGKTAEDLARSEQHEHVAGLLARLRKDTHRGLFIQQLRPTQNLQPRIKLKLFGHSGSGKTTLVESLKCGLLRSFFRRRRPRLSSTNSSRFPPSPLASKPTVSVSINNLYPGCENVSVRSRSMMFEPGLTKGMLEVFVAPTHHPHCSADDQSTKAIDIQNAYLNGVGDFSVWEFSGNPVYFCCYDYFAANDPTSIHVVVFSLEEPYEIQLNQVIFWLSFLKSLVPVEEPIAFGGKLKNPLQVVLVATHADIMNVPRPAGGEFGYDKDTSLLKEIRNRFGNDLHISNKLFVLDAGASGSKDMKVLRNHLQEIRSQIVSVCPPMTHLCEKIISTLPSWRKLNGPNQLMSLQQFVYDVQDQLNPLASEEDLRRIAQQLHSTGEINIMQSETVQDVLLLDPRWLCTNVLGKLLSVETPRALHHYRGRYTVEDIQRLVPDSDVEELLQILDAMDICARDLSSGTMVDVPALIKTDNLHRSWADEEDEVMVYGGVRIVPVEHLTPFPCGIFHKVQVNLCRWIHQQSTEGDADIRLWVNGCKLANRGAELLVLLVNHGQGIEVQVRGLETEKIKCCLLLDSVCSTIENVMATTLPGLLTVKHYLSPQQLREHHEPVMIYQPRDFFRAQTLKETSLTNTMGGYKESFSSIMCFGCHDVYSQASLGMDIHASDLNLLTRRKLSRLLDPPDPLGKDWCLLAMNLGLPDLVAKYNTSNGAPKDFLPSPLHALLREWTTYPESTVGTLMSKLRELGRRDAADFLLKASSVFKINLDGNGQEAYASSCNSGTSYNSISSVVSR

As to `Nc1nc2c(ncn2[C@@H]2O[C@H](COP(=O)(O)OP(=O)(O)O)[C@@H](O)[C@H]2O)c(=O)[nH]1` [GDP], the DAPk catalytic activity entry was “increased catalytic activity”.

Source of the values: patent US9149523B2, “Compositions and methods for treating cancer and neurodegenerative diseases” (Yeda Research and Development Co. Ltd., priority 2010, dated 2015).
